According to patent publication US10508120B2, “TYK2 inhibitors and uses thereof” (Nimbus Lakshmi, Inc., priority 2017, dated 2019):

Tests used:
[1] = molecular target: human TYK2 (JH2domain-pseudokinase) (Homo sapiens (Human), UniProt P29597); assay: TYK2 JH2 Domain Binding Assay (KINOMEscan)
Outline: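 The construct was human TYK2 G556–D888 fused to the NFkB DNA-binding domain and expressed in HEK293 cells; unpurified extract was incubated with compound and liganded beads for 1 hour at room temperature.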

Tyk2 kinase domain (DH1) = Tyk2 kinase domain (DH1) (Homo sapiens (Human), UniProt P29597); assay: Tyk2 Radioactive Kinase Assay; format: biochemical; conditions: compound at 10 μM, ATP 10 μM; for inhibition at 10 µM: read-out: Tyk2 JH1% Inhibition @ 10 μM
Tyk2 kinase domain (DH1), sequence (P29597 897-1176): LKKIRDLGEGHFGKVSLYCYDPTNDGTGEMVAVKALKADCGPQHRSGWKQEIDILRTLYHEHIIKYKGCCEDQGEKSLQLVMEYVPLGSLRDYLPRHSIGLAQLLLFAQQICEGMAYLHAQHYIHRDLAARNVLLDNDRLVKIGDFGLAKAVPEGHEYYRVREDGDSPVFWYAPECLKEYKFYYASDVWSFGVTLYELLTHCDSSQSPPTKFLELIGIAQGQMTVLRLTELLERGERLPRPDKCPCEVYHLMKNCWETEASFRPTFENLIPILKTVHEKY
Outline: (§1)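 Read-out is percent inhibition from a radioactive kinase reaction, measured with compound at 10 μM.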

JAK2 kinase domain (JH1) = JAK2 kinase domain (JH1) (Homo sapiens (Human), UniProt O60674); assay: JAK2 Radioactive Kinase Assay; format: biochemical; conditions: compound at 10 μM, ATP 10 μM; for inhibition at 10 µM: read-out: JAK2 JH1% Inhibition @ 10 μM
JAK2 kinase domain (JH1), sequence (O60674 849-1124): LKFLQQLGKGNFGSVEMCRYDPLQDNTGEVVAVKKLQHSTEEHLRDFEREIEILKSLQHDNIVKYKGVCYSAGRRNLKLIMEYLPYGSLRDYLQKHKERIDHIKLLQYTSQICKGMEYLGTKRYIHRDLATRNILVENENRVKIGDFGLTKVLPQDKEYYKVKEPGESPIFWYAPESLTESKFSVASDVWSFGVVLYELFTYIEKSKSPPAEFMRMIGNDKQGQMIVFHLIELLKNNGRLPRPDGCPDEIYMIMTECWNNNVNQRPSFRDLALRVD
Outline: as §1

human TYK2 (JH2domain-pseudokinase), sequence (P29597 556-888): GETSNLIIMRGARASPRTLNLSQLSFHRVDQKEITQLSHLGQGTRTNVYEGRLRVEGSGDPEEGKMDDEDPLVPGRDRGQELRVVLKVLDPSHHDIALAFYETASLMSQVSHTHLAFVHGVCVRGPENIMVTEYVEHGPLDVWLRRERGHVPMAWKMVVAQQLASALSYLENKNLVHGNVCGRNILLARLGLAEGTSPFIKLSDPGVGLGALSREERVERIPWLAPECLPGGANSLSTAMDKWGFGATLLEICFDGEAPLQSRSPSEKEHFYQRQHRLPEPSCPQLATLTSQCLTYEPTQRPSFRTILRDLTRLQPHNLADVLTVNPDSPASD

Row | SMILES | Kd [1] [nM] | inhibition at 10 µM (Tyk2 kinase domain (DH1)) [%] | inhibition at 10 µM (JAK2 kinase domain (JH1)) [%] | Tyk2 JH1% Inhibition @ 10 μM (Tyk2 kinase domain (DH1)) | JAK2 JH1% Inhibition @ 10 μM (JAK2 kinase domain (JH1))
1 | CNc1cc(Nc2cccn(C3CCOCC3)c2=O)nc2c(C(=O)N[C@H]3CC[C@H]3O)cnn12 [I-527] | 0.2 to 1 | < 50 | < 50 |  | 
2 | CNc1cc(Nc2cccn(C3CCOCC3)c2=O)nc2c(C(=O)N[C@H]3CC[C@@H]3O)cnn12 [I-528] | < 0.2 | < 50 | < 50 |  | 
3 | CNc1cc(Nc2cccc(C3CCCCO3)n2)nc2c(C(=O)NCC3(CO)CC3)cnn12 (stereo not drawn) [I-530] | 0.2 to 1 | < 50 | < 50 |  | 
4 | CNc1cc(Nc2ccc3c(n2)OCCO3)nc2c(C(=O)NC3CC3)cnn12 [I-531] | 0.2 to 1 | < 50 | < 50 |  | 
5 | CNc1cc(Nc2ccc3c(n2)OCCO3)nc2c(C(=O)N[C@H]3C[C@H]3F)cnn12 [I-532] | 0.2 to 1 | < 50 | < 50 |  | 
6 | CNc1cc(Nc2cc(F)cn([C@@H]3CCCOC3)c2=O)nc2c(C(=O)NC3CC3)cnn12 [I-533] | < 0.2 | < 50 | < 50 |  | 
7 | CNc1cc(Nc2cc(F)cn([C@H]3CCCOC3)c2=O)nc2c(C(=O)NC3CC3)cnn12 [I-534] | 0.2 to 1 | < 50 | < 50 |  | 
8 | CNc1cc(Nc2cccn([C@H]3CCCN(C)C3)c2=O)nc2c(C(=O)N[C@@H]3C[C@@H]3F)cnn12 [I-535] | < 0.2 | < 50 | < 50 |  | 
9 | CNc1cc(Nc2cccn([C@@H]3CCCN(C)C3)c2=O)nc2c(C(=O)N[C@@H]3C[C@@H]3F)cnn12 [I-536] | 0.2 to 1 | < 50 | < 50 |  | 
10 | CNc1cc(Nc2cccn([C@@H]3CCC[C@@H]3OC)c2=O)nc2c(C(=O)N[C@@H]3C[C@@H]3F)cnn12 [I-537] | 1 to 10 |  |  | A (percent inhibition at 10 μM lower than 50) | A (percent inhibition at 10 μM lower than 50)
11 | CNc1cc(Nc2cccn([C@H]3CCC[C@H]3OC)c2=O)nc2c(C(=O)N[C@@H]3C[C@@H]3F)cnn12 [I-538] | 1 to 10 | < 50 | < 50 |  | 
12 | CNc1cc(Nc2cccn(C3CCN(C)CC3)c2=O)nc2c(C(=O)NCC(C)(C)CO)cnn12 [I-542] | 0.2 to 1 | < 50 | < 50 |  | 
13 | CNc1cc(Nc2cccn(C3CCN(C)CC3)c2=O)nc2c(C(=O)NCC3(CO)CC3)cnn12 [I-543] | 0.2 to 1 | < 50 | < 50 |  | 
14 | CNc1cc(Nc2cccnc2OC2CC2)nc2c(C(=O)N[C@@H]3COC[C@@H]3O)cnn12 [I-546] | 1 to 10 | < 50 | < 50 |  | 
15 | CNc1cc(Nc2cccc([C@@H]3CCCOC3)n2)nc2c(C(=O)NC3CC3)cnn12 [I-548] | < 0.2 | < 50 | 50 to 70 |  | 
16 | CNc1cc(Nc2cccc([C@H]3CCCOC3)n2)nc2c(C(=O)NC3CC3)cnn12 [I-549] | < 0.2 | < 50 | < 50 |  | 
17 | CNc1cc(Nc2cccn(C3CC4(COC4)C3)c2=O)nc2c(C(=O)NC3CC3)cnn12 [I-550] | < 0.2 | < 50 | < 50 |  | 
18 | CNc1cc(-n2cc(N3CCCC3)c3ncccc32)nc2c(C(=O)NC3CC3)cnn12 [I-552] | 1 to 10 | < 50 | < 50 |  | 
19 | CNc1cc(-n2cc(N3CCCC3)c3ncccc32)nc2c(C(=O)N[C@@H]3C[C@@H]3F)cnn12 [I-553] | 0.2 to 1 | < 50 | < 50 |  | 
20 | CNc1cc(-n2cc(N3CCOCC3)c3ncccc32)nc2c(C(=O)NC3CC3)cnn12 [I-554] | 1 to 10 | < 50 | < 50 |  | 
21 | CNc1cc(-n2cc(N3CCOCC3)c3ncccc32)nc2c(C(=O)N[C@H]3C[C@H]3F)cnn12 [I-555] | 1 to 10 | < 50 | < 50 |  | 
22 | CNc1cc(Nc2cccn(C3CCOCC3)c2=O)nc2c(C(=O)N[C@@H]3CC[C@@H]3O)cnn12 [I-556] | < 0.2 | < 50 | < 50 |  | 
